Laboratory results from US20210369652A1, “Nonhormonal Unisex Contraceptives” (The Regents of the University of California, priority 2019, published 2021).
“Also recorded” adds a separate entry of the source.

What was measured:
ANT = target: T1, ANT (Mus musculus, UniProt P48962); assay: Whole-IMM patch-clamp recording of H+ current (IH) in mitoplasts; type: biochemical, mice; conditions: for ANT-mediated H+ current (IH), regulators: skeletal muscle mitoplast, 2 μM AA, then 1 mM bath ADP, step from 0 to -160 mV
T1 construct: functional analysis of mitochondrial ion channels and transporters in their native membrane environment; from tissue; host or cells: heart mitoplasts (WT and ANT1-/- mice); skeletal muscle mitoplasts
T1 sequence (P48962 2-298): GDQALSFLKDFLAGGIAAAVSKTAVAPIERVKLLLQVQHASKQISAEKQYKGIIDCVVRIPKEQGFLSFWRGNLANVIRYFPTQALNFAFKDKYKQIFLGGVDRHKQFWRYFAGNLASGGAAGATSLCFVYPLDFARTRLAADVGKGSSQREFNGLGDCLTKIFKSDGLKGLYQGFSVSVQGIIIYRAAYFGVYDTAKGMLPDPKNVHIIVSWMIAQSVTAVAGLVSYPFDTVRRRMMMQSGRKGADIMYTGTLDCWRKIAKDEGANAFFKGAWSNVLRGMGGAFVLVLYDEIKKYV
Source text: FIG. 3A-B is a pair of schematic diagrams depicting a mitochondrial patch-clamp. (A) Preparation of mitoplasts (vesicles of the whole IMM): (1) Isolation of mitochondria from cell lysate by centrifugation; (2) OMM removal using a low-pressure French press; (3) isolated mitoplasts in a KCl solution. Remnants of the OMM (arrow) are attached to the IMM. (B) Patch-clamp recording from mitoplasts. After formation of the gigaohm seal (mitoplast-attached configuration), the membrane patch under the pipette can be destroyed by high-amplitude voltage pulses to form a whole-mitoplast configuration for recording currents (I) across the whole IMM. Alternatively, the patch pipette can be withdrawn from the mitoplast to form an inside-out mode for recording single-channel activity.
FIG. 4 is a series of graphs (upper panels) and a schematic diagram (lower panel) showing regulators of ANT-mediated H^+ current (IH). […] Control current is shown in black. Middle panel: IH time course of the left panel. Skeletal muscle mitoplast. IH amplitudes were measured upon stepping from 0 to −160 mV. Right panel: ADP inhibition of IH in points 2 and 3. Remaining IH measured at −160 mV is shown as a percentage of control, n=8. Explanation of transient IH inhibition by cytosolic adenine nucleotides. ANT in c-state, with fatty acid (FA) anion in the translocation pathway, mediates IH (I). Cytosolic ADP^3− binds in c-state and expels FA anion/blocks translocation pathway, leading to IH inhibition (2). Upon ANT conformation change, ADP dissociates into matrix (pipette) solution (2 and 3). FA anion re-associates with ANT in m-state, restoring IH (4 and 5). Cytosolic ADP cannot inhibit IH while AAC is in m-state (5). Preliminary data from (Bertholet, A. M. Chouchani., E. T.; Kazak, L.; Angelin, A.; Fedorenko, A.; Long, J. Z.; Vidoni, S.; Garrity, R.; Cho, J.; Terada, N.; Wallace, D.C.; Spiegelman, B. M.; and Kirichok, Y. Proton Transport is an Integral Function of the Mitochondrial ADP/ATP Carrier Nature July; 571(7766):515-520 (2019)).
Right panel: IH current densities at −160 mV for WT and ANT1^−/− mitoplasts. b, Representative currents induced by 50 μM DNP in WT and ANT1^−/− mitoplasts of heart. Right panel: IH current densities induced by 50 and 200 μM DNP at −160 mV in WT and ANT1^−/− mitoplasts.
We employed direct patch-clamp recording from vesicles of the whole intact inner mitochondrial membrane (IMM; so-called mitoplasts, FIG. 3), which allow high-resolution functional analysis of mitochondrial ion channels and transporters in their native membrane environment^10,36,37. […]
We recorded DNP-induced IH in heart of ANT1-deficient mice (ANT1 is the dominant isoform of ANT in this tissue).

human sperm mitochondria = assay: Human sperm mitochondrial membrane potential (MMP) assessment with MitoRed; type: cell-based; conditions: 15 minutes incubation, 1 μM NEN or 0.75 μM BAM15, 45 nM MitoRed fluorescence
Procedure: (§1) Samples from each condition (at least 100 of sperm midpieces per condition) were then assessed for fluorescence intensity measured with 45 nM MitoRed, which is a cell membrane permeable rhodamine-based dye. MitoRed localizes to mitochondria, and emits red fluorescence. The interaction of Mito Red with mitochondria depends on the membrane potential of the mitochondria. Uncoupled mitochondria emit less fluorescence. Data are standard boxplots, as in (A). C) Effect of sMU on human capacitated sperm hyperactivated motility. Cells were capacitated as described (11) for 4 hours. 4 μM Progesterone was added 2 minutes before imaging to trigger hyperactivation (HA). Cells were assessed as either Hyperactivated or Not Hyperactivated. N>45 cells. Error bars represent 95% CI calculated through the Wilson/Brown method.

human sperm = assay: Human sperm basal beat frequency; type: cell-based; conditions: for sperm beat frequency / motility, result in words: human sperm, 1 μM NEN
Procedure: as §1, with “A) Human sperm were purified by swim-up method and their basal beat frequency (BF, in Hz) was measured as described in (Mannowetz, N., Naidoo, N. M., Choo, S. A., Smith, J. F. & Lishko, P. V. Slol is the principal potassium channel of human spermatozoa. eLife 2, e01009, doi:10.7554/eLife.01009 (2013)) in control HS solution ((1); in the presence of vehicle control ((2); […]. X's represent the mean of the sample, and dots represent individual data points. B) Human sperm mitochondrial membrane potential (MMP) assessment. Human sperm were incubated for 15 minutes in the presence of 0.1% DMSO (vehicle control), in the presence of 1 μM NEN or 0.75 μM […]. Samples” for “Samples”

human capacitated sperm = assay: Hyperactivated motility of capacitated human sperm triggered by progesterone; type: cell-based; conditions: capacitated 4 hours; 4 μM progesterone; concentrations as low as 1 μM
Procedure: A) Human sperm were purified by swim-up method and their basal beat frequency (BF, in Hz) was measured as described in (Mannowetz, N., Naidoo, N. M., Choo, S. A., Smith, J. F. & Lishko, P. V. Slol is the principal potassium channel of human spermatozoa. eLife 2, e01009, doi:10.7554/eLife.01009 (2013)) in control HS solution ((1); in the presence of vehicle control ((2); […]. X's represent the mean of the sample, and dots represent individual data points. B) Human sperm mitochondrial membrane potential (MMP) assessment. Human sperm were incubated for 15 minutes in the presence of 0.1% DMSO (vehicle control), in the presence of 1 μM NEN or 0.75 μM […]. Samples from each condition (at least 100 of sperm midpieces per condition) were then assessed for fluorescence intensity measured with 45 nM MitoRed, which is a cell membrane permeable rhodamine-based dye. MitoRed localizes to mitochondria, and emits red fluorescence. The interaction of Mito Red with mitochondria depends on the membrane potential of the mitochondria. Uncoupled mitochondria emit less fluorescence. Data are standard boxplots, as in (A). C) Effect of sMU on human capacitated sperm hyperactivated motility. Cells were capacitated as described (11) for 4 hours. […] Cells were assessed as either Hyperactivated or Not Hyperactivated. […] Error bars represent 95% CI calculated through the Wilson/Brown method.

Row | Structure (SMILES) | ANT-mediated H+ current (IH), regulators (ANT) | sperm mitochondrial uncoupling (sMU) as assessed by mitochondrial depolarization (human sperm mitochondria) | sperm beat frequency / motility, result in words (human sperm) | hyperactivation (hyperactivated motility) (human capacitated sperm) | also measured
1 | Nc1ncnc2c1ncn2[C@@H]1O[C@H](COP(=O)(O)OP(=O)(O)O)[C@@H](O)[C@H]1O [ADP] | transient inhibition |  |  |  | 
2 | C=C1[C@@H]2CC[C@H]3[C@]4(C)C[C@H](O[C@@H]5O[C@H](CO)[C@@H](OS(=O)(=O)O)[C@H](OS(=O)(=O)O)[C@H]5OC(=O)CC(C)C)CC(C(=O)O)(C(=O)O)[C@H]4CC[C@]3(C2)[C@H]1O [CATR, carboxyatractyloside] |  |  |  |  | inhibition of IH mediated by ANT (ANT; whole-IMM patch-clamp, classical ANT inhibitor): blocked
3 | O=[N+]([O-])c1ccc(O)c([N+](=O)[O-])c1 [DNP, 2,4-dinitrophenol] |  | uncouple sperm mitochondria |  |  | proton leak (IH) via ANT induced by uncoupler (ANT; whole-IMM patch-clamp, 50 and 200 μM DNP, heart mitoplasts WT and ANT1-/-, -160 mV): strongly and specifically activates proton leak via ANT; also recorded: primarily depends on ANT
4 | NCCO.O=C(Nc1ccc([N+](=O)[O-])cc1Cl)c1cc(Cl)ccc1O [NEN, niclosamide ethanolamine] |  | uncouples human sperm mitochondria; also recorded: strong sMU | significantly decreases | significantly decreases | 
5 | CCCCC/C=C\C/C=C\C/C=C\C/C=C\CCCC(=O)O [arachidonic acid] | activated |  |  |  | 
6 | O=C(Nc1ccc([N+](=O)[O-])cc1Cl)c1cc(Cl)ccc1O [niclosamide] |  | uncouple sperm mitochondria | significantly decreases sperm motility | inhibited hyperactivation | sperm beat frequency (human sperm; human sperm purified by swim-up, decreased from 14 Hz, concentrations as low as 1 μM): 6 Hz; sperm mitochondrial uncoupling (sMU) as assessed by mitochondrial depolarization (human sperm mitochondria; listed as Niclosamide): uncouples mitochondria
